Reference: patent US9585877B2, “Methods of maintaining, treating or improving cognitive function” (Forum Pharmaceuticals, Inc., priority 2012, dated 2017)

What was measured:
Type in all cases: in vivo, human
[1] = system: subjects with mild-to-moderate Alzheimer's disease; assay: Responder analysis: PK/PD effects (ADAS-Cog)
Excerpt: The response by plasma level of Test Compound was also investigated. A ‘responder’ definition of >3 pt ADAS-Cog effect was utilized. The plasma levels of responders and nonresponders informed a logistic regression model. […] FIG. 12 illustrates the mean plasma concentration levels (including the 95% confidence levels and the measured extremes) of Test Compound, and FIG. 13 illustrates the Exposure Response analysis, using plasma concentration levels of Test Compound and ADAS-Cog-13 changes. The relationship between dose and likelihood of clinical response, as defined by either an ADAS-Cog effect ≧3 points, or ≧2 points, is summarized in Table 19: […]

[2] = system: subjects with mild-to-moderate Alzheimer's disease; assay: Clinical study, ADCS-ADL
Method: (§1) A double-blind study of 3 doses of the Test Composition or placebo in subjects with mild-to-moderate Alzheimer's disease, with or without receiving a concomitant AChEI for 24 weeks (168 days) after a 7 day placebo run-in period.
(§2) Total number of subjects in the safety population was 409 subjects that were dosed once-daily with a dosing-capsule for a period of 168 days. The subjects dosed, and the particular dosing, included: 104 subjects dosed with Placebo capsule; and 305 subjects dosed with Test Compound (104 subjects with 0.3 mg capsules; 101 subjects with 1 mg capsules; and 100 subjects with 2 mg capsules).
(§3) The population included generally healthy male or female subjects, aged 50 to ≦85 years, with mild-to-moderate Alzheimer's disease, consistent with criteria defined by a Work Group of the National Institute of Neurological and Communicative Disorders and Stroke—Alzheimer's Disease and Related Disorders Association, of mild to moderate severity, with a Mini-Mental State Examination score (MMSE) 14 and ≦24, and a Clinical Dementia Rating Scale Sum of the Boxes (CDR-SB) score of 2. […] Subjects were required to be either receiving a stable dose of an AChEI (donepezil or rivastigmine) for at least 3 months before screening or not presently being treated with an AChEI or mementine for at least 30 days.
(§4) Subjects with mild to moderate Alzheimer's disease receiving stable treatment with an AChEI (donepezil or rivastigmine: ‘add-on’ subjects) or not receiving an AChEI (de novo subjects′) received 0.3, 1, or 2 mg doses of Test Composition or placebo for up to 24 weeks (168 days) of double-blind treatment, after a 7-day single-blind, placebo run-in period to assess study drug compliance. A follow-up telephone contact was conducted approximately 15 days after the last dose of study drug for questions regarding safety.
Alzheimer's Disease Cooperative Study Group-Activities of Daily Living Scale (ADCS-ADL, or sometimes referred to as ADCS-ADL-23):
The ADCS-ADL-23 test employed herein is based on the procedure developed by Galasko D, Bennett D, Sano M, et al., Alz Dis Assoc Disord (1997) 11(2): S33-S39.
The ADCS-ADL test assesses the actual performance of specific actions and behaviors by a patient as observed by a caregiver/informant.

[3] = system: subjects with mild-to-moderate Alzheimer's disease; assay: Clinical study, Mini-Mental State Examination (MMSE)
Method: as §1, §2, §3, §4
Mini-Mental State Examination (MMSE)
The MMSE test employed herein is based on the procedure developed by Folstein, M., Folstein, S., McHugh, P. Mini-Mental State: “A Practical Method for Grading the Cognitive State of Patients for the Clinician”; Journal of Psychiatric Research 1975, 12:189-98.
The MMSE test assesses and/or evaluates memory, orientation, recognition, attention, concentration, language, and praxis. The MMSE total score ranges from 0 to 30 points. Lower scores indicate a lower level of functioning. An increase from baseline indicates improvement.

[4] = system: subjects with mild-to-moderate Alzheimer's disease; assay: Clinical study, ADAS-Cog-11
Method: as §1, §2, §3, §4
Cognitive Part of the Alzheimer's Disease Assessment Scale (ADAS-Cog-11)
The ADAS-cog-11 test employed herein is based on the procedure developed in the adapted version of the Administration and Scoring Manual for the Alzheimer's Disease Assessment Scale, 1994 Revised Edition, Richard C. Mohs, Ph.D., © 1994 by The Mount Sinai School of Medicine, manual modified by Donald Connor, Ph.D., and Kimberly Schafer, M.S. (3/98).
The ADAS-cog-11 test includes the following test items: (1) Word Recall, (2) Naming Objects/Fingers, (3) Commands, (4) Construction Praxis, (5) Ideational Praxis, (6) Orientation, (7) Word Recognition, (8) Remembering Test Instructions, (9) Spoken Language Ability, (10) Word Finding Difficulty, and (11) Comprehension.
The ADAS-cog-11 total score ranges from 0 to 70 (higher scores indicate more severe impairment). A decrease from baseline indicates improvement.

Cl.O.O=C(N[C@H]1CN2CCC1CC2)c1cc2cccc(Cl)c2s1 [Test Compound, (R)-7-chloro-N-(quinuclidin-3-yl)benzo[b]thiophene-2-carboxamide, hydrochloride, monohydrate]
Responders, ADAS-Cog (≧2 points) ([1]; 0.3 mg): 31% | Responders, ADAS-Cog (≧3 points) ([1]; 0.3 mg): 25% | Responders, ADAS-Cog (≧2 points) ([1]; 1 mg): 33% | Responders, ADAS-Cog (≧3 points) ([1]; 1 mg): 28% | Responders, ADAS-Cog (≧2 points) ([1]; 2 mg): 51% | Responders, ADAS-Cog (≧3 points) ([1]; 2 mg): 45% | Relationship of plasma level and likelihood of being a responder ([1]; responder >3 pt ADAS-Cog effect, logistic regression model, p=0.003): significant plasma level/exposure response relationship exists | ADCS-ADL (Baseline was assigned the value of zero @ Week 0) ([2]; 0.3 mg daily dose, Week 4): 0.07926 | ADCS-ADL (Baseline was assigned the value of zero @ Week 0) ([2]; 0.3 mg daily dose, Week 12): −0.5757 | ADCS-ADL (Baseline was assigned the value of zero @ Week 0) ([2]; 0.3 mg daily dose, Week 18): −0.6255 | ADCS-ADL (Baseline was assigned the value of zero @ Week 0) ([2]; 0.3 mg daily dose, Week 23): −1.8992 | ADCS-ADL (Baseline was assigned the value of zero @ Week 0) ([2]; 1 mg daily dose, Week 4): 0.509 | ADCS-ADL (Baseline was assigned the value of zero @ Week 0) ([2]; 1 mg daily dose, Week 12): 0.9138 | ADCS-ADL (Baseline was assigned the value of zero @ Week 0) ([2]; 1 mg daily dose, Week 18): 0.8306 | ADCS-ADL (Baseline was assigned the value of zero @ Week 0) ([2]; 1 mg daily dose, Week 23): −0.3467 | ADCS-ADL (Baseline was assigned the value of zero @ Week 0) ([2]; 2 mg daily dose, Week 4): 0.908 | ADCS-ADL (Baseline was assigned the value of zero @ Week 0) ([2]; 2 mg daily dose, Week 12): 0.8426 | ADCS-ADL (Baseline was assigned the value of zero @ Week 0) ([2]; 2 mg daily dose, Week 18): 0.8097 | ADCS-ADL (Baseline was assigned the value of zero @ Week 0) ([2]; 2 mg daily dose, Week 23): 0.3166 | ADCS-ADL Effect Size ([2]; 2 mg dose versus Placebo): 0.20 | MMSE (Baseline was assigned the value of zero @ Week 0) ([3]; 0.3 mg daily dose, Week 4): −0.0411 | MMSE (Baseline was assigned the value of zero @ Week 0) ([3]; 0.3 mg daily dose, Week 12): 0.185 | MMSE (Baseline was assigned the value of zero @ Week 0) ([3]; 0.3 mg daily dose, Week 18): −0.3601 | MMSE (Baseline was assigned the value of zero @ Week 0) ([3]; 0.3 mg daily dose, Week 23): −0.3112 | MMSE (Baseline was assigned the value of zero @ Week 0) ([3]; 1 mg daily dose, Week 4): 0.9142 | MMSE (Baseline was assigned the value of zero @ Week 0) ([3]; 1 mg daily dose, Week 12): 0.7836 | MMSE (Baseline was assigned the value of zero @ Week 0) ([3]; 1 mg daily dose, Week 18): 0.7253 | MMSE (Baseline was assigned the value of zero @ Week 0) ([3]; 1 mg daily dose, Week 23): 0.4416 | MMSE (Baseline was assigned the value of zero @ Week 0) ([3]; 2 mg daily dose, Week 4): 0.5262 | MMSE (Baseline was assigned the value of zero @ Week 0) ([3]; 2 mg daily dose, Week 12): 0.3526 | MMSE (Baseline was assigned the value of zero @ Week 0) ([3]; 2 mg daily dose, Week 18): 0.723 | MMSE (Baseline was assigned the value of zero @ Week 0) ([3]; 2 mg daily dose, Week 23): 0.5139 | MMSE Effect Size ([3]; 2 mg dose versus Placebo): 0.21 | ADAS-Cog-11 (Baseline was assigned the value of zero @ Week 0) ([4]; 0.3 mg daily dose, Week 4): −0.3534 | ADAS-Cog-11 (Baseline was assigned the value of zero @ Week 0) ([4]; 0.3 mg daily dose, Week 12): −0.2129 | ADAS-Cog-11 (Baseline was assigned the value of zero @ Week 0) ([4]; 0.3 mg daily dose, Week 18): −0.067 | ADAS-Cog-11 (Baseline was assigned the value of zero @ Week 0) ([4]; 0.3 mg daily dose, Week 23): 0.2755 | ADAS-Cog-11 (Baseline was assigned the value of zero @ Week 0) ([4]; 1 mg daily dose, Week 4): −0.3412 | ADAS-Cog-11 (Baseline was assigned the value of zero @ Week 0) ([4]; 1 mg daily dose, Week 12): −0.8317 | ADAS-Cog-11 (Baseline was assigned the value of zero @ Week 0) ([4]; 1 mg daily dose, Week 18): 0.1063 | ADAS-Cog-11 (Baseline was assigned the value of zero @ Week 0) ([4]; 1 mg daily dose, Week 23): 0.3534 | ADAS-Cog-11 (Baseline was assigned the value of zero @ Week 0) ([4]; 2 mg daily dose, Week 4): −0.0031 | ADAS-Cog-11 (Baseline was assigned the value of zero @ Week 0) ([4]; 2 mg daily dose, Week 12): −0.998 | ADAS-Cog-11 (Baseline was assigned the value of zero @ Week 0) ([4]; 2 mg daily dose, Week 18): −1.1519 | ADAS-Cog-11 (Baseline was assigned the value of zero @ Week 0) ([4]; 2 mg daily dose, Week 23): −1.1188 | ADAS-Cog 11 Effect Size ([4]; 2 mg dose versus Placebo): 0.34
